Measurements from patent US10759751B2, “Substituted spirocyclohexanes as muscarinic M1 receptor and/or M4 receptor agonists” (Heptares Therapeutics Limited, priority 2016, dated 2020).

Legend:
Assay type in all cases: cell-based
[1] = biological target: T1, human muscarinic M4 receptor (Homo sapiens, UniProt P08173); test: Alphascreen Surefire phospho-ERK1/2 functional assay, M4; settings: for EC50 / M4 % Emax cf. ACh: CHO cells stably expressing human M4; for EC50: phospho-ERK1/2, read-out: pEC50 M4 (converted); for Emax: CHO, read-out: M4 % Emax cf. ACh, CHO cells stably expressing human M4; for Emax / M4 % Emax cf. ACh: Emax relative to ACh
T1 construct: expressed in transfected cells
T1 sequence (P08173 1-479): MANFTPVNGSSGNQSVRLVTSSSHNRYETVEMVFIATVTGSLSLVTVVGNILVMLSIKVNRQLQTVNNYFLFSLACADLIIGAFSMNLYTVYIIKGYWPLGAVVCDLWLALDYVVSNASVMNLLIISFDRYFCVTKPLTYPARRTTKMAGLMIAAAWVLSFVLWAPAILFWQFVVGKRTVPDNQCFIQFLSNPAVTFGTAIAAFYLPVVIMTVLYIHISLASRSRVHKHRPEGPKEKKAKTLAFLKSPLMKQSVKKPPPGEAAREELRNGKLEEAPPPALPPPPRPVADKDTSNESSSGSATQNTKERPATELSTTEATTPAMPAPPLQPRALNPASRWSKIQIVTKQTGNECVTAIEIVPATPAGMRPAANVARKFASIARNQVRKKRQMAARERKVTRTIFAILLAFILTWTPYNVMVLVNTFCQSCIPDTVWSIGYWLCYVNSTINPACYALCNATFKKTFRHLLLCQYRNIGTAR
Procedure: (§1) Functional assays were performed using the Alphascreen Surefire phospho-ERK1/2 assay (Crouch & Osmond, Comb. Chem. High Throughput Screen, 2008). ERK1/2 phosphorylation is a downstream consequence of both Gq/11 and Gi/o protein coupled receptor activation, making it highly suitable for the assessment of M1, M3 (Gq/11 coupled) and M2, M4 receptors (Gi/o coupled), rather than using different assay formats for different receptor subtypes. CHO cells stably expressing the human muscarinic M1, M2, M3 or M4 receptor were plated (25K/well) onto 96-well tissue culture plates in MEM-alpha+10% dialysed FBS. Once adhered, cells were serum-starved overnight. Agonist stimulation was performed by the addition of 5 μL agonist to the cells for 5 min (37° C.). Media was removed and 50 μL of lysis buffer added. After 15 min, a 4 μL sample was transferred to 384-well plate and 7 μL of detection mixture added. Plates were incubated for 2 h with gentle agitation in the dark and then read on a PHERAstar plate reader.
(§2) pEC50 and Emax figures were calculated from the resulting data for each receptor subtype.

[2] = biological target: T2, human muscarinic M1 receptor (Homo sapiens, UniProt P11229); test: Alphascreen Surefire phospho-ERK1/2 functional assay, M1; settings: for EC50 / M1 % Emax cf. ACh: CHO cells stably expressing human M1; for EC50: phospho-ERK1/2, read-out: pEC50 M1 (converted); for Emax: CHO, read-out: M1 % Emax cf. ACh, CHO cells stably expressing human M1; for Emax / M1 % Emax cf. ACh: Emax relative to ACh
T2 sequence (P11229 1-460): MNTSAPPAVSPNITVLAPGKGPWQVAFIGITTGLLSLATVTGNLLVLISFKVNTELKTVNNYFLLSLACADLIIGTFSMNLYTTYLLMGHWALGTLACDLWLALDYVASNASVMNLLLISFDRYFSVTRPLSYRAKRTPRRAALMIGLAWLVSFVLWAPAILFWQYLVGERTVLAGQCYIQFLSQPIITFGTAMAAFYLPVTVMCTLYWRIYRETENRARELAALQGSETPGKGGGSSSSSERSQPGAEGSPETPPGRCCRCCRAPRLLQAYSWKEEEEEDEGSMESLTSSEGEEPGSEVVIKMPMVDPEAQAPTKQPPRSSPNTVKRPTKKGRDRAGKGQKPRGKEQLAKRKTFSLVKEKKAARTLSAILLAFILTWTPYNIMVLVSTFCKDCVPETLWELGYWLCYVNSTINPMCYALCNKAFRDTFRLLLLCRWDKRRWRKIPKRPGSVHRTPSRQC
Procedure: as §1, §2

[3] = biological target: T3, human muscarinic M3 receptor (Homo sapiens, UniProt P20309); test: Alphascreen Surefire phospho-ERK1/2 functional assay, M3
T3 construct: expressed in transfected cells
Procedure: as §1, §2

T3 sequence (P20309 whole entry): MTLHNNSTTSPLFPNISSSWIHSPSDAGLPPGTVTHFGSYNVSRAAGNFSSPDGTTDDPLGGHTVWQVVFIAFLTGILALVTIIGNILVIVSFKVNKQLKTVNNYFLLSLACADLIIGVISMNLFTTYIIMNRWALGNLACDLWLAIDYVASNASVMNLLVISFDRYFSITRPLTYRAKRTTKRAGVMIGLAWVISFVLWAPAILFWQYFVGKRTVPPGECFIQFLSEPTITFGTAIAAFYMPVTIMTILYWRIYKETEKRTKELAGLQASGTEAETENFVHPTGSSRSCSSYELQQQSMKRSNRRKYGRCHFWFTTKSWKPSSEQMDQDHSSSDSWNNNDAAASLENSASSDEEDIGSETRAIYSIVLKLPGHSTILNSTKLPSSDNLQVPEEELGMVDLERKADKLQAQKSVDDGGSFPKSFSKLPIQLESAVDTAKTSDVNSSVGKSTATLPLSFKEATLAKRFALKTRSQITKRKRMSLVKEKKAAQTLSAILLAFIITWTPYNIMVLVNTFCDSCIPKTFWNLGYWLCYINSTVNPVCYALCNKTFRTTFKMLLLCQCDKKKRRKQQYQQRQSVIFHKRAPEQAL

Compound	EC50 [1]	Emax [1]	EC50 [2]	Emax [2]	M4 % Emax cf. ACh [1]	M1 % Emax cf. ACh [2]	EC50 ([3]; CHO cells stably expressing human M3, phospho-ERK1/2, read-out: pEC50 M3 (converted))	Emax ([3]; CHO, read-out: M3 % Emax cf. ACh)	M3 % Emax cf. ACh ([3]; CHO cells stably expressing human M3, Emax relative to ACh)
CCOC(=O)N[C@H]1CCN(C2CCC3(CC2)C(=O)Nc2cc(OC)ccc23)C1 (single isomer, unassigned) [2-9 isomer 1]	> 20000 nM	51%	282 nM	77%					
CCOC(=O)N[C@H]1CCN(C2CCC3(CC2)C(=O)N(C(=O)OCC)c2ccccc23)C1 (single isomer, unassigned) [2-14 isomer 2]	> 20000 nM	56%	117 nM	77%					
CCOC(=O)N[C@H]1CCN(C2CCC3(CC2)C(=O)Nc2cnc(OC)cc23)C1 (single isomer, unassigned) [2-19 isomer 1]	> 20000 nM	19%	2090 nM	63%					
CCOC(=O)N[C@H]1CCN(C2CCC3(CC2)C(=O)Nc2ccc(OC)nc23)C1 (single isomer, unassigned) [2-20 isomer 1]	> 20000 nM	16%	372 nM	32%					
CCOC(=O)N(C)[C@@H]1CCN(C2CCC3(CC2)C(=O)Nc2cccnc23)C1 (single isomer, unassigned) [2-21 isomer 2]	245 nM	86%	468 nM	58%					
C/C=C/C(=O)N1CCCN(C2CCC3(CC2)C(=O)Nc2ccccc23)CC1 (single isomer, unassigned) [4-4 isomer 2]	> 20000 nM	12%	257 nM	48%					
CCOC(=O)N1CCCN(C2CCC3(CC2)C(=O)Nc2cc(C)ccc23)CC1 (single isomer, unassigned) [4-6 isomer 1]	3240 nM		575 nM		26%	85%			
CCOC(=O)N1CCCN(C2CCC3(CC2)C(=O)Nc2cccc(C)c23)CC1 (single isomer, unassigned) [4-8 isomer 1]	380 nM		1100 nM		52%	67%			
CCOC(=O)N1CCCN(C2CCC3(CC2)C(=O)Nc2cc(C#N)ccc23)CC1 (single isomer, unassigned) [4-13 isomer 2]	347 nM	39%	955 nM	38%					
CCOC(=O)N1CCCN(C2CCC3(CC2)C(=O)Nc2ccc(C#N)cc23)CC1 (single isomer, unassigned) [4-14 isomer 1]	> 20000 nM	24%	977 nM	76%					
CCOC(=O)N1CCCN(C2CCC3(CC2)C(=O)Nc2ncc(Cl)cc23)CC1 (single isomer, unassigned) [4-16 isomer 1]	> 20000 nM	5%	891 nM	60%					
CCOC(=O)N1CCCN(C2CCC3(CC2)C(=O)Nc2ncc(OC)cc23)CC1 (single isomer, unassigned) [4-17 isomer 2]	> 20000 nM	19%	437 nM	89%					
CCOC(=O)N1CCCN(C2CCC3(CC2)CN(S(C)(=O)=O)c2ncccc23)CC1 (single isomer, unassigned) [4-19 isomer 1]	324 nM	97%	6760 nM	104%					
CCOC(=O)N1CCCN(C2CCC3(CC2)C(=O)Nc2ccc(OC)nc23)CC1 (single isomer, unassigned) [4-24 isomer 1]	316 nM	61%	813 nM	75%					
CCOC(=O)NC1CCN(C2CCC3(CC2)C(=O)Nc2ccccc23)CC1 (single isomer, unassigned) [7-1 isomer 1]	158 nM	26%	257 nM			112%			
CCOC(=O)NC1CCN(C2CCC3(CC2)C(=O)Nc2ccccc23)CC1 (single isomer, unassigned) [7-1 isomer 2]	282 nM		490 nM		20%	68%			
CCOC(=O)NCC1CCN(C2CCC3(CC2)C(=O)Nc2ccccc23)CC1 (single isomer, unassigned) [7-2 isomer 2]	> 20000 nM		389 nM		10%	66%			

Second part, the molecule after the results:

EC50 [1]	Emax [1]	EC50 [2]	Emax [2]	M4 % Emax cf. ACh [1]	M1 % Emax cf. ACh [2]	EC50 ([3]; CHO cells stably expressing human M3, phospho-ERK1/2, read-out: pEC50 M3 (converted))	Emax ([3]; CHO, read-out: M3 % Emax cf. ACh)	M3 % Emax cf. ACh ([3]; CHO cells stably expressing human M3, Emax relative to ACh)	Compound
> 20000 nM		562 nM		15%	51%				Cc1noc(C2CC3(CCN(C4CCC(C#N)(c5ccc(F)cn5)CC4)C3)C2)n1 (single isomer, unassigned) [21-3 Isomer 3]
69.2 nM		162 nM		75%	80%				Cc1noc(C2CC3(CCN(C4CCC(C#N)(c5ccc(F)cn5)CC4)C3)C2)n1 (single isomer, unassigned) [21-3 Isomer 4]
309 nM	68%	2140 nM	47%						COc1ccc(C2(C#N)CCC(N3CCC4(CC(c5nc(C)no5)C4)C3)CC2)nc1 (single isomer, unassigned) [21-4 Isomer 4]
1070 nM	55%	> 20000 nM			18%				Cc1ccc(C2(C#N)CCC(N3CCC4(CC(c5nc(C)no5)C4)C3)CC2)nc1 (single isomer, unassigned) [21-5 Isomer 1]
1260 nM		14500 nM		51%	82%				Cc1ccc(C2(C#N)CCC(N3CCC4(CC(c5nc(C)no5)C4)C3)CC2)nc1 (single isomer, unassigned) [21-5 Isomer 2]
251 nM	78%	347 nM	113%			> 20 µM	8%		Cc1noc(C2CC2CNC2CCC3(CC2)C(=O)Nc2ccccc23)n1 (single isomer, unassigned) [23-1 Isomer 1]
> 20000 nM		224 nM		14%	51%				COc1ccc2c(c1)C1(CCC(N3CCC4(CC(c5nc(C)no5)C4)C3)CC1)C(=O)N2 (single isomer, unassigned) [26-2 Isomer 3]
832 nM	45%	977 nM	59%						N#CC1(c2ccc(F)cn2)CCC(N[C@@H]2CC[C@H](c3nc(C(F)(F)F)no3)C2)CC1 (single isomer, unassigned) [28-1 Isomer 2]
955 nM	55%	3470 nM	40%						Cc1ccc(C2(C#N)CCC(N[C@@H]3CC[C@H](c4nc(C(F)(F)F)no4)C3)CC2)nc1 (single isomer, unassigned) [28-2 Isomer 2]
				110%				115%	CC(=O)OCC[N+](C)(C)C [ACh]
